The values that follow come from paper PMC11073612 (Nature structural & molecular biology, 2022).

Entries after “also recorded” stand apart in the source; their conditions may differ. Where no end group is shown, it is not given here.

Test [1] has as its system SSTR2. The test is described as follows: BRET-based G protein activation assay at SSTR2. The test is classed as cell-based. As to conditions: HEK-293S, 10 min after ligand, n=3 biological replicates. A general note: In BRET a luciferase serves as donor, and the signal depends on an acceptor being close.
The test system of test [2] is SSTR1. The test is described as follows: BRET-based Gi3 activation assay at SSTR1. The test is classed as cell-based. As to conditions: HEK-293S, 10 min after ligand, n=3 biological replicates.
Test [3] relates to SSTR3. The experiment in a line: BRET-based Gi3 activation assay at SSTR3. It is filed as cell-based. As to conditions: HEK-293S, 10 min after ligand, n=3 biological replicates.
Test [4] deals with SSTR4. The test is described as follows: BRET-based Gi3 activation assay at SSTR4. It is filed as cell-based. As to conditions: HEK-293S, 10 min after ligand, n=3 biological replicates.
The test system of test [5] is SSTR5. The experiment in a line: BRET-based Gi3 activation assay at SSTR5. It is filed as cell-based. As to conditions: HEK-293S, 10 min after ligand, n=3 biological replicates.
The subject of test [6] is SSTR2 R184 to alanine mutant. The test is described as follows: BRET-based Gi3 activation assay, SSTR2 ECL2 mutant R184 to alanine. As to conditions: HEK-293S. It is filed as cell-based.
The subject of test [7] is SSTR2 R184 to proline mutant. The experiment in a line: BRET-based Gi3 activation assay, SSTR2 ECL2 mutant R184 to proline. It is filed as cell-based. To be noted: HEK-293S.
In test [8] the test system is SSTR2 ECL2 mutants. The experiment in a line: BRET assays comparing SST14 and SST28 at ECL2 mutants. The test is classed as cell-based. To be noted: HEK-293S; for behavior of SST14 versus SST28 across ECL2 mutants: all of the mutants tested.
Test [9] relates to chimeric constructs of SSTR2 (ECL swaps). The experiment in a line: BRET-based Gi3 activation assay, SSTR2 ECL2/ECL3 chimeras. To be noted: HEK-293S, n=3; for ligand recognition, effect of ECL swaps: nearly all ECL2/ECL3 swaps. It is filed as cell-based.
For test [10], the system named is SSTR2 ECL2+/4 (entire ECL2 from SSTR4). The experiment in a line: BRET-based Gi3 activation assay, SSTR2 ECL2+/4 chimera. The test is classed as cell-based. As to conditions: ECL2+/4 vs ECL2/4, HEK-293S, n=3.
In test [11] the test system is SSTR3 H192T. The experiment in a line: BRET-based Gi3 activation assay, SSTR3 H192T. The test is classed as cell-based. As to conditions: HEK-293S.
Test [12] has as its system SSTR3 H192A. The experiment in a line: BRET-based Gi3 activation assay, SSTR3 H192A. The test is classed as cell-based. As to conditions: HEK-293S.
Test [13] relates to SSTR1–5. As to conditions: cited from earlier work.
Test [14] concerns SSTR2 Q187M. The test is described as follows: BRET-based Gi3 activation assay, SSTR2 Q187M. To be noted: HEK-293S, n=3 biological replicates. The test is classed as cell-based.
The subject of test [15] is SSTR2 N276^6.55Q. The test is described as follows: BRET-based Gi3 activation assay, SSTR2 N276Q. The test is classed as cell-based. As to conditions: HEK-293S.
In test [16] the test system is SSTR2 Q102^2.63S. The test is described as follows: BRET-based Gi3 activation assay, SSTR2 Q102S. To be noted: HEK-293S. The test is classed as cell-based.

For “SST14: endogenous 14-residue somatostatin peptide (Cayman, 20809)”, the “Gi3 BRET activation response” value in test [1], in [2], in test [3], in test [4] and in [5] was “comparable response” throughout. The “SSTR2 activation (effect of mutation)” value in test [6] and in test [7] was “substantially reduces SSTR2 activation” each time. In addition, the “behavior of SST14 versus SST28 across ECL2 mutants” value in test [8] is “remarkably similar”. Further, in test [9] (ECL swaps), the “impairment by ECL swaps, SST14 versus octreotide” value is on record as “far greater impairment for SST14 than octreotide”. Further, in [9], the “ligand recognition, effect of ECL swaps” value is “impaired ligand recognition of SST14 and octreotide to some degree; also recorded: non-linear effect on SST14-induced signaling”. The “SST14-induced signaling compared to the shorter SSTR4 ECL2 swap” value in test [10] is recorded as “improved SST14-induced signaling”. In addition, the “SST14-stimulated G protein activation (effect of mutation)” value in [11] and in test [12] was “deleterious to SST14-stimulated G protein activation” throughout.
As for “SST28: 28-residue somatostatin peptide (SANSNPAMAPRERKAGCKNFFWKTFTSC; ends and bridges not checked; cysteine pairing not given here)”, in test [8] (across all of the ECL2 mutants tested), the “strength of SST28 relative to SST14” value is given as “slightly weaker binder than SST14 (less than an order of magnitude)”. Also, the “behavior of SST14 versus SST28 across ECL2 mutants” value in [8] is “remarkably similar”.
Turning to lanreotide, the subtype selectivity result in [13] is listed as “SSTR2-selective”.
With octreotide, the “Gi3 BRET activation response” value in test [1] is “activates SSTR2 most potently”; in test [2], “almost no activity”; in [3] it was “reduced response”; in test [4], “almost no activity”; in test [5], “reduced response”. Moreover, the “SSTR2 activation (effect of mutation)” value in [6] and in test [7] was “substantially reduces SSTR2 activation” throughout. Moreover, the “octreotide signaling (effect of mutation)” value in test [14] was “enhances octreotide signaling”; in test [15] it was “decreases octreotide signaling in a selective manner”. Besides, the “ligand recognition, effect of ECL swaps” value in test [9] was “impaired ligand recognition of SST14 and octreotide to some degree”. Moreover, the “octreotide-induced G protein signaling (effect of mutation)” value in test [16] was “selectively reduces octreotide-induced G protein signaling”.
